Legend:
Type in all cases: in vivo, BALB/c nude mice
[1] = test system: gastric cancer (NCI-N87); experiment: Treatment efficacy of combined RIT using losartan and ^64Cu-TRZ; details: compared to the control (PBS); losartan 60 mg/kg s.c. for 25 days; FIG. 5A
Experimental: To identify gastric cancer (NCI-N87) treatment efficacy of the combined therapy using losartan and trastuzumab, the groups were classified into ^64Cu-TRZ treated group (n=7), losartan-included ^64Cu-TRZ treated group (n=7), losartan solely treated group (n=6), TRZ solely treated group (n=6), and PBS treated group (n=8). […] Losartan was delivered subcutaneously (60 mg/kg for 25 days), and TRZ (150 μg) was injected intravenously once at the start of treatment.

[2] = test system: collagen; experiment: Masson trichrome staining of collagen in gastric cancer tissue; details: gastric cancer tumor tissue; versus control; FIG. 3A
Experimental: Masson trichrome staining was performed for histological visualization of collagen, an extracellular component, which is considered as a disorder when TRZ travels. Tumor tissues were obtained by sacrificing animals. The obtained tissues were fixed overnight in 4% paraformaldehyde and transferred to OCT compounds (Sakura Finetec, USA). The tissues were sectioned to a thickness of 40 μm. Staining was performed according to the kit protocol (Abcam (www.abcam.com) ab150686).
Bouin's Fluid was applied to each section and cultured overnight at room temperature. The slides were washed with water, cultured in Weigert's iron hematoxylin for 5 minutes, then washed with tap water, and cultured in Biebrich scarlet/acid fuchsin solution for […]. Without washing, the slides were re-cultured with aniline blue for 30 minutes. The slides were then washed with water and cultured in acetic acid for 3-5 minutes.
It was also dehydrated in graded alcohol, washed in xylene, and then mounted to a class slide using a mounting medium. The slides were visualized, and images were filmed with the Olympus BX53 system microscope (Olympus, life science solution, Waltham, Massachusetts (02453)).

[3] = test system: hyaluronan; experiment: Hyaluronan staining (alcian blue) in gastric cancer tissue; details: gastric cancer tumor tissue; versus control; FIG. 3B
Experimental: Hyaluronan staining was performed using alcian blue stain kit (Vector laboratories, Burlingame, CA 94010, Alcian Blue (pH 2.5), Stain kit, H-3501). The tissues were sectioned to a thickness of 20 μm. The sections were washed with water to remove excess OCT. Acetic acid was treated to tissue sections for 3 minutes, and then Alcian blue solution was treated at 37° C. for 30 minutes. Excess staining was removed by washing with acetic acid. It was then washed with tap water for 2 minutes and then with distilled water for 1-2 minutes. In addition, the nuclear fast red solution was treated for 5 minutes, and washing was followed with tap water and then with distilled water. The slides were dehydrated in graded alcohol and removed from xylene, and then a cover slip was mounted. The slides were visualized, and images were filmed with Olympus BX53 system microscope (Olympus, life science solution, Waltham, Massachusetts (02453)).

## CCCCc1nc(Cl)c(CO)n1Cc1ccc(-c2ccccc2-c2nn[nH]n2)cc1 [losartan]
[1]
  tumor growth response: tumoricidal response
[2]
  collagen (masson trichrome staining): reduced collagen
[3]
  hyaluronan (alcian blue staining): reduced hyaluronan

From patent publication US20230390248A1, “COMPOSITION FOR ENHANCING TUMOR PENETRATION OF ANTICANCER DRUG, COMPRISING LOSARTAN AS ACTIVE INGREDIENT, AND USE THEREOF” (priority 2020, published 2023)
